Consider 30 compounds from patent US5780505A, “Substituted N-arylmethylamino derivatives of cyclobutene-3, 4-diones” (American Home Products Corporation, priority 1997, dated 1998).

Usually IC50 stands for the concentration at which inhibition is half-maximal. In general, inhibition refers to the relative decrease from the control value, in per cent.

Each structure is given as a SMILES string.

The subject of one assay is Isolated Rat Bladder Strips. Description: Inhibition of contractions in isolated rat bladder strips (KCl-enhanced contractile activity; smooth muscle relaxation). It counts as cell-based, Sprague-Dawley rats. The settings on record: 0.5 h; isolated rat bladder strips, 15 mM additional KCl, 30 minute challenge; read-out: IC50 (50% inhibition of pre-drug contractile activity). The source says:
The smooth muscle relaxing activity of the compounds of this invention was established in accordance with standard pharmaceutically accepted test procedures with representative compounds as follows:
Sprague-Dawley rats (150-200 g) are rendered unconscious by CO2 asphyxiation and then euthanized by cervical dislocation. The bladder is removed into warm (37 deg.C) physiological salt solution (PSS) of the following composition (mM): NaCl, 118.4; KCl, 4.7; CaCl2, 2.5; MgSO4, 4.7; H2 O, 1,2; NaHCO3, 24.9; KH2 PO4, 1,2; glucose, 11.1; EDTA, 0.023; gassed with […]; pH 7.4. The bladder is opened and then dut into strips 1-2 mm in width and 7-10 mm in length. The strips are subsequently suspended in a 10 mL tissue bath under an initial resting tension of 1.5 g. The strips are held in place by two surgical clips one of which is attached to a fixed hook while the other is attached to an isometric force transducer. […] The carbachol is then washed out and the tissue allowed to relax to its resting level of activity. Following a further 30 min period of recovery an additional 15 mM KCl are introduced into the tissue bath. This increase in KCl concentration results in a large increase in the amplitude of spontaneous contractions (and initiation of contractions in previously quiescent strips) superimposed upon a small increase in basal tone. Following stabilization of this enhanced level of contractile activity, incremental increases in the concentration of test compound or vehicle are introduced into the tissue bath. Contractile activity is measured for each compound or vehicle concentration during the last minute of a 30 minute challenge.
The isometric force developed by the bladder strips is measured using a […] to elicit 50% inhibition of pre-drug contractile activity (IC50 concentration) and is calculated from this concentration-response curve.
For the compound `CCC(C)(C)Nc1c(NCc2c(Cl)cccc2Cl)c(=O)c1=O` [Example 4, 3-(2,6-Dichloro-benzylamino)-4-(1,1-dimethyl-propylamino)-cyclobut-3-ene-1,2-dione], the IC50 stood at 280 ± 30 nM.

As to `CCC(C)(C)Nc1c(NCc2cc(C)cc(C#N)c2)c(=O)c1=O` [Example 7, 3-([2-(1,1-Dimethyl-propylamino)-3,4-dioxo-cyclobut-1-enylamino]-methyl)-5-methyl-benzonitrile], the IC50 worked out at 860 ± 270 nM. In the case of `Cc1cc(C)c(CNc2c(NC(C)(C)C)c(=O)c2=O)c(C)c1` [Example 9, 3-tert-Butylamino-4-(2,4,6-trimethyl-benzylamino)-cyclobut-3-ene-1,2-dione], the IC50 was 1800 ± 700 nM.

With `CC(C)(C)Nc1c(NCc2c(Cl)cccc2Cl)c(=O)c1=O` [Example 10, 3-tert-Butylamino-4-(2,6-dichloro-benzylamino)-cyclobut-3-ene-1,2-dione], the IC50 amounted to 1110 ± 410 nM. In the case of `Cc1cc(C#N)cc(CNc2c(NC(C)C(C)(C)C)c(=O)c2=O)c1` (centres unmarked) [Example 12, 3-{[3,4-Dioxo-2-(1,2,2-trimethyl-propylamino)-cyclobut-1-enylamino]-methyl}-5-methyl-benzonitrile], the concentration for half-maximal inhibition (IC50) is 6600 ± 1600 nM. `COc1cc(OC)c(CNc2c(NC(C)(C)C)c(=O)c2=O)c(OC)c1` [Example 15, 3-tert-Butylamino-4-(2,4,6-trimethoxy-benzylamino)-cyclobut-3-ene-1,2-dione]: the IC50 came out at 11100 ± 400 nM. In the case of `Cc1cc(C#N)cc(CNc2c(NC(C)(C)C)c(=O)c2=O)c1` [Example 16, 3-[(2-tert-Butylamino-3,4-dioxo-cyclobut-1-enylamino)-methyl]-5-methyl-benzonitrile], the IC50 turned out to be 2900 ± 100 nM. On the same count and under the same terms, in the case of `COc1ccc(CNc2c(NC(C)(C)C)c(=O)c2=O)c(OC)c1` [Example 17, 3-tert-Butylamino-4-(2,4-dimethoxy-benzylamino)-cyclobut-3-ene-1,2-dione] it was 9600 ± 5700 nM. In the case of `CC(C)(C)Nc1c(NCc2ccc(F)cc2F)c(=O)c1=O` [Example 18, 3-tert-Butylamino-4-(2,4-difluoro-benzylamino)-cyclobut-3-ene-1,2-dione], the IC50 was 2100 ± 900 nM.

For `CC(C)(C)Nc1c(NCc2c(F)cccc2F)c(=O)c1=O` [Example 19, 3-tert-Butylamino-4-(2,6-difluoro-benzylamino)-cyclobut-3-ene-1,2-dione], the IC50 is 7500 ± 4500 nM. In the case of `COc1cccc(CNc2c(NC(C)(C)C)c(=O)c2=O)c1OC` [Example 20, 3-tert-Butylamino-4-(2,3-dimethoxy-benzylamino)-cyclobut-3-ene-1,2-dione], the IC50 is 8600 ± 3500 nM. For the compound `CC(C)(C)Nc1c(NCc2cc(F)ccc2F)c(=O)c1=O` [Example 21, 3-tert-Butylamino-4-(2,5-difluoro-benzylamino)-cyclobut-3-ene-1,2-dione], the IC50 was 3900 ± 1100 nM. Regarding `COc1cc(CNc2c(NC(C)(C)C)c(=O)c2=O)cc(OC)c1` [Example 22, 3-tert-butylamino-4-(3,5-dimethoxy-benzylamino)-cyclobut-3-ene-1,2-dione], the IC50 is 25000 ± 10000 nM. On to `Cc1cccc(CNc2c(NC(C)(C)C)c(=O)c2=O)c1C` [Example 23, 3-tert-Butylamino-4-(2,3-dimethyl-benzylamino)-cyclobut-3-ene-1,2-dione], for which the IC50 was determined as 2700 ± 300 nM.

Consider `CCCCNc1c(NCc2ccc(C#N)cc2CC)c(=O)c1=O` [Example 24, 4-[(2-Butylamino-3,4-dioxo-cyclobut-1-enylamino)-methyl]-3-ethyl-benzonitrile], for which the IC50 came to 27100 ± 4000 nM. Same read-out and setting: in the case of `CCc1cc(C#N)ccc1CNc1c(NC(C)C)c(=O)c1=O` [Example 25] it was 31000 ± 4500 nM; in that of `CCc1cc(C#N)ccc1CNc1c(NC(CC)CC)c(=O)c1=O` [Example 26], 5200 ± 600 nM; in that of `CCc1cc(C#N)ccc1CNc1c(N[C@H](C)C(C)(C)C)c(=O)c1=O` [Example 28, 4-{[3,4-Dioxo-2-(1,2,2-trimethyl-propylamino)-cyclobut-1-enylamino]-methyl}-3-ethyl-benzonitrile], 2000 ± 200 nM. Regarding `CCC(C)(C)Nc1c(NCc2c(C)cccc2Cl)c(=O)c1=O` [Example 32, 3-(2-chloro-6-methyl-benzylamino)-4-(1,1-dimethyl-propylamino)-cyclobut-3-ene-1,2-dione], the IC50 was 4350 ± 4100 nM. Same read-out and setting: in the case of `CCC(C)(C)Nc1c(NCc2c(C)cc(C#N)cc2Cl)c(=O)c1=O` [Example 33, 3-Chloro-4-{[2-(1,1-dimethyl-propylamino)-3,4-dioxo-cyclobut-1-enylamino]-methyl}-5-methyl-benzonitrile] it was 160 ± 10 nM; in that of `Cc1cc(C#N)cc(Cl)c1CNc1c(N[C@H](C)C(C)(C)C)c(=O)c1=O` [Example 34, 3-Chloro-4-{[3,4-dioxo-2-(1,2,2-trimethyl-propylamino)-cyclobut-1-enylamino]-methyl}-5-methyl-benzonitrile], 1900 ± 1100 nM. In the case of `Cc1cc(Br)cc(C)c1CNc1c(N[C@H](C)C(C)(C)C)c(=O)c1=O` [Example 35, 3-(4-Bromo-2,6-dimethyl-benzylamino)-4-(1,2,2-trimethyl-propylamino)-cyclobut-3-ene-1,2-dione], the IC50 was 8900 ± 3000 nM. Turning to `CCC(C)(C)Nc1c(NCc2c(C)cc(Br)cc2C)c(=O)c1=O` [Example 37, 3-(4-Bromo-2,6-dimethyl-benzylamino)-4-(1,1-dimethyl-propylamino)-cyclobut-3-ene-1,2-dione], the IC50 was 1200 ± 1100 nM. The same measure, in the same setting: with `Cc1cc(C)c(CNc2c(NC(C)(C)C)c(=O)c2=O)c(Cl)c1` [Example 39, 3-tert-Butylamino-4-(2-chloro-4,6-dimethyl-benzylamino)-cyclobut-3-ene-1,2-dione] the figure was 710 ± 500 nM. Take `CCC(C)(C)Nc1c(NCc2c(C)cc(C)cc2Cl)c(=O)c1=O` [Example 40, 3-(2-Chloro-4,6-dimethyl-benzylamino)-4-(1,1-dimethyl-propylamino)-cyclobut-3-ene-1,2-dione]: the half-maximal inhibitory concentration (IC50) worked out at 200 ± 80 nM.

Still in this assay, the particulars now being: Rattus norvegicus, 0.5 h; read-out: Percent contraction at 30 μM (C).
In the case of `CCC(CC)Nc1c(NCc2ccc(OC)c(OC)c2)c(=O)c1=O` [Example 14, 3-(3,4-Dimethoxy-benzylamino)-4-(1-ethyl-propylamino)-cyclobut-3-ene-1,2-dione], the percent contraction at 30 µM came to 54%. In the case of `Cc1cc(C)c(CNc2c(N[C@H](C)C(C)(C)C)c(=O)c2=O)c(Cl)c1` [Example 38, 3-(2-Chloro-4,6-dimethyl-benzylamino)-4-(1,2,2-trimethyl-propylamino)-cyclobut-3-ene-1,2-dione], the percent contraction at 30 µM is 200%.

Still in this assay, the particulars now being: Rattus norvegicus; read-out: Percent inhibition at 30 μM (I).
For `Cc1cc(C#N)cc(CNc2c(NC(C)C(C)(C)C)c(=O)c2=O)c1` (centres unmarked) [Example 12, 3-{[3,4-Dioxo-2-(1,2,2-trimethyl-propylamino)-cyclobut-1-enylamino]-methyl}-5-methyl-benzonitrile], the inhibition at 30 µM is 37 ± 0.7%.

For the compound `CCC(CC)Nc1c(NCc2cc(C)cc(C#N)c2)c(=O)c1=O` [Example 13, 3-{[2-(1-Ethyl-propylamino)-3,4-dioxo-cyclobut-1-enylamino]-methyl}-5-methyl-benzonitrile], the inhibition at 30 µM was 19.1 ± 1.7%.

Regarding `CCC(CC)Nc1c(NCc2ccc(OC)c(OC)c2)c(=O)c1=O` [Example 14, 3-(3,4-Dimethoxy-benzylamino)-4-(1-ethyl-propylamino)-cyclobut-3-ene-1,2-dione], the inhibition at 30 µM came out at 27.2 ± 2.4%.

Turning to `Cc1cccc(Cl)c1CNc1c(N[C@H](C)C(C)(C)C)c(=O)c1=O` [Example 29, 3-(2-Chloro-6-methyl-benzylamino)-4-(1,2,2-trimethyl-propylamino)-cyclobut-3-ene-1,2-dione], the inhibition at 30 µM came to 38.6 ± 3.6%. On to `Cc1cc(C)c(CNc2c(NCC(F)(F)C(F)(F)F)c(=O)c2=O)c(Cl)c1` [Example 41, 3-(2-Chloro-4,6-dimethyl-benzylamino)-4-(2,2,3,3,3-pentafluoro-propylamino)-cyclobut-3-ene-1,2-dione], for which the inhibition at 30 µM was 41 ± 2.9%.
